These results are taken from patent US20250115571A1, “OXOPIPERAZINE DERIVATIVES” (Inthera Bioscience AG, priority 2017, published 2025).

For orientation: GI50 means the concentration at which growth is held to half of that of the control. Low values mean more potent growth inhibition, high ones less potent growth inhibition. In general, T/C refers to the result in the treated group divided by that in the control group, in per cent.

The subject of experiment [1] is patient-derived castration-resistant prostate tumor cells (model #PR6511). In words: Castration resistant prostate cancer patient-derived xenograft (CRPC PDX). The following applies: for CR (complete regression) = number of mice / PR (partial regression) = number of mice / TFS (Tumor Free Survival) = number of complete regressions recorded up to Group Day End: groups of eight mice. It counts as in vivo, mouse. As for the experimental part: NSG NOD.Cg-PrkdcscidIj2rgtm1Wjl/SzJ mice (6-8 weeks of age) were injected with patient-derived castration-resistant prostate tumor cells (model #PR6511, Crown Bioscience UK Ltd Hillcrest, Osgathorpe Leicestershire, UK). The cells were inoculated subcutaneously into the left flank of 40 male NSG mice. When tumors reached a mean volume of approximately 100 mm^3 (i.e. 100 mm^3+/−54 mm^3, FIG. 3), mice were randomly assigned to five treatment groups of each eight mice (TABLE 9). Body weights were measured three times weekly prior to the initiation of dosing and daily thereafter. Tumor burden was assessed by caliper measurement three times weekly. Dosing breaks were applied when tolerability issues arose (body weight loss>10). Upon completion of the scheduled dosing phase at day 57, tumor outgrowth was monitored for groups 3, 4 and […] up to study day 77. Groups 1 and 2 were terminated on study day 57. Results of the experiment are shown in TABLES 10 and 11; and FIGS. 3 and 4. The experiment was performed in the Crown Bioscience Ltd. testing facility (Crown Bioscience UK Ltd Hillcrest, Dodgeford Lane, Osgathorpe Leicestershire LE12 9TE, UK).
On the technique in general: A xenograft is tissue or cells of one species grown in another, often human tumour cells in immunodeficient mice.

The next experiment has as its system RPWE-1. In words: 5-day cell proliferation assay (CTG). It is filed as cell-based. The following applies: Homo sapiens, 120 h, RPWE-1 (Table 6: RWPE-1), Prostate. As for the experimental part:
(§1) For screening using a proliferation assay, the cells used were cultured at 37° C. with 5% CO2, except for those being cultured with L-15 medium (37° C. and 100% air, TABLE 7). Compound stock solutions (10 mM) were made in sterile water, aliquoted and stored at room temperature. Cisplatin was used as reference Control. Plastic consumables, culture media and supplements were purchased from well-known suppliers (TABLE 8).
(§2) Cell seeding (day −1). When necessary, cells were trypsinized using standard methods (see e.g. example 01). Cells were collected and resuspended in 5-6 mL of appropriate culture medium, counted and diluted to the needed density. Fifty-four μl (microliter) cells were seeded per well in a 384-well plate. Extra four wells per cell line were seeded on an additional plate for Day 0 reading (baseline cell density). Cells were incubated at 37° C. overnight.
(§3) Compound treatment and Day 0 reading (day 0). Tenfold final concentration of test compounds and Cisplatin were prepared in cell culture media (work dilutions). Six μl of work dilution solutions were dispensed into the corresponding wells in 384-well plates to bring the total volume up to 60 μl. Conditions were tested in triplicate. The plates were then incubated at 37° C. for five days. For the day 0 reading, 30 μl of CTG and 6 μl cell culture medium were added to the day 0 plates, contents mixed for 2 min on a plate shaker, and the plates incubated for 10 min at room temperature in the dark. Luminescence was recorded on an EnVision Multi Label Reader (2104-0010A, PerkinElmer, USA).
(§4) Endpoint CTG reading (day 5). The amounts of cells in the plates was determined by endpoint CTG-test. Thirty μl of CTG were added to the 60 μl of cell culture per well, contents mixed for 2 min on a plate shaker, and the plates incubated for 10 min at room temperature in the dark. Luminescence was recorded on an EnVision Multi Label Reader.
(§5) Data analysis. Fifty percent growth inhibition concentrations (GI50) were calculated based on percentage of control data (untreated cells) from each cell line (TABLE 5 (this example) and TABLE 6). Curves were fitted using a nonlinear regression model with a sigmoidal dose response. Examples of obtained curves are depicted in FIG. 2A-2F.

Another experiment concerns MRC-5. In words: 5-day cell proliferation assay (CTG). It is filed as cell-based. The following applies: Homo sapiens, MRC5, 120 h, MRC-5, Lung. As for the experimental part:
as §1, §2, §3, §4, §5

Another experiment has as its system SW48. The experiment is described as follows: 5-day cell proliferation assay (CTG). It is filed as cell-based. The following applies: Homo sapiens, 120 h, SW48, Colorectal. As for the experimental part: as §1, §2, §3, §4, §5
The next experiment deals with HS 746.T. In words: 5-day cell proliferation assay (CTG). It is filed as cell-based. The following applies: Homo sapiens, Hs746T, 120 h, Stomach/Gastric. As for the experimental part:
as §1, §2, §3, §4, §5

A further experiment deals with HCT116. In words: 5-day cell proliferation assay (CTG). It is filed as cell-based. The following applies: Homo sapiens, HCT-116, 120 h, HCT116, Colorectal. As for the experimental part: as §1, §2, §3, §4, §5
The next experiment relates to SNU-16. The experiment is described as follows: 5-day cell proliferation assay (CTG). It counts as cell-based. The following applies: Homo sapiens, 120 h, SNU-16, Stomach/Gastric. As for the experimental part: as §1, §2, §3, §4, §5
The test system of a further experiment is SNU-5. The experiment is described as follows: 5-day cell proliferation assay (CTG). It counts as cell-based. The following applies: Homo sapiens, 120 h, SNU-5, Stomach/Gastric. As for the experimental part:
as §1, §2, §3, §4, §5

Another experiment concerns HS-5. The experiment is described as follows: 5-day cell proliferation assay (CTG). It counts as cell-based. The following applies: Homo sapiens, HS5, 120 h; HS-5, 5-day cell proliferation. As for the experimental part:
as §1, §2, §3, §4, §5

In the next experiment the test system is SW948. In words: 5-day cell proliferation assay (CTG). It is filed as cell-based. The following applies: Homo sapiens, 120 h, SW948, Colorectal. As for the experimental part:
as §1, §2, §3, §4, §5

Another experiment has as its system HDFA (fibroblast). In words: 5-day cell proliferation assay (CTG). It counts as cell-based. The following applies: Homo sapiens, 120 h, Skin, highest tested concentration 10 μM. As for the experimental part: as §1, §2, §3, §4, §5
The test system of a further experiment is SW620. The experiment is described as follows: 5-day cell proliferation assay (CTG). The following applies: Homo sapiens, SW-620, 120 h, SW620, Colorectal. It counts as cell-based. As for the experimental part:
as §1, §2, §3, §4, §5

The subject of another experiment is HT-29. The experiment is described as follows: 5-day cell proliferation assay (CTG). The following applies: Homo sapiens, 120 h, HT-29, Colorectal. It is filed as cell-based. As for the experimental part:
as §1, §2, §3, §4, §5

Experiment [2] concerns MKN45 human gastric adenocarcinoma cells. The experiment is described as follows: Cell-derived xenograft mouse model for gastric cancer (MKN45 CDX). It counts as in vivo. The following applies: p.o.; for Tumor Size day 29: MKN45 CDX, female BALB/c nude mice, Mean ± SEM; for T/C: day 29, tumor-to-control ratio (volume/volume). As for the experimental part:
Female BALB/c nude mice (8-9 weeks of age) were injected with MKN45 human gastric adenocarcinoma cells. The cells were inoculated subcutaneously into the left flank of 48 mice. When tumors reached a mean volume of approximately 103 mm^3, mice were randomly assigned to eight treatment groups of each six mice (TABLE 16). Body weights were measured three times weekly prior to the initiation of dosing and daily thereafter. Tumor burden was assessed by caliper measurement twice weekly. Dosing breaks were applied when tolerability issues arose (body weight loss>10%). The study was terminated four weeks post first dosing. The experiment was performed in the Crown Bioscience Ltd. (Beijing) testing facility (Ground Floor, Light Muller Building, Changping Sector of Zhongguancun Scientific Park, No. 21 Huoju Road, Changping District, Beijing, CHN).

Where [3] appears, read: 6 mg/kg p.o. QD, n.s. = not significant.
Setting [4] is: p.o. QD, 10 mg/kg, 3 mg/kg from day 51 on.

Regarding `CC(C)C[C@@H]1NCCN([C@@H](CC(C)C)C(=O)N2CCC3(C[C@@H]2C)OCC(CN2CCCC2)CO3)C1=O` (stereo partly drawn) [Compound 258, (3S)-1-[(2S)-4-methyl-1-oxo-1-[(3s,6s,8S)-8-methyl-3-(pyrrolidin-1-ylmethyl)-1,5-dioxa-9-azaspiro[5.5]undec-an-9-yl]pentan-2-yl]-3-(2-methylpropyl)piper-azin-2-one (^≠), isomer Z], the “TWO-WAY ANOVA p (tumor size at the end of the study) vs. Compound 258 10 mg/kg” value in experiment [1] (setting [3]) was “n.s”. Besides, the “TWO-WAY ANOVA p (tumor size at the end of the study) vs. Enzalutamide” value in experiment [1] (6 mg/kg, p.o. QD) was “p < 0.0001”; in experiment [1] (10 mg/kg p.o. QD) it was “p < 0.0001”. Moreover, the “TWO-WAY ANOVA p (tumor size at the end of the study) vs. Vehicle” value is listed as “p < 0.0001” in experiment [1] (6 mg/kg, p.o. QD) and “p < 0.0001” in experiment [1] (10 mg/kg p.o. QD). The “CR (complete regression) = number of mice” value in [1] (p.o. QD, 6 mg/kg) was found to be 3; in experiment [1] (setting [4]), 4. Besides, the “PR (partial regression) = number of mice” value in [1] (p.o. QD, 6 mg/kg) was found to be 2; in experiment [1] (setting [4]) it was 2. In addition, the “TFS (Tumor Free Survival) = number of complete regressions recorded up to Group Day End” value is given as 3 in [1] (p.o. QD, 6 mg/kg) and 3 in [1] (setting [4]). Besides, the concentration for 50% growth inhibition (GI50) in the experiment on RPWE-1 is 4 nM; with MRC-5, 12 nM; in the experiment on SW48 it was 9 nM; in the experiment with HS 746.T, 8 nM; with HCT116 it was 5 nM; in the experiment on SNU-16, 13 nM. Also, the GI50 with SNU-5 was 4 nM; with HS-5 it was 5 nM; with SW948 it was 10 nM; in the experiment with HDFA (fibroblast), over 10000 nM; in the experiment with SW620, 4 nM; in the experiment on HT-29 it was 4 nM. For the same molecule, the “Tumor Size day 29” value in experiment [2] (3 mg/kg, QD) came to 428.0 ± 52.5 mm^3; in experiment [2] (6 mg/kg, QD), 186.9 ± 17.3 mm^3; in [2] (20 mg/kg, BIW), 763.4 ± 84.5 mm^3. Moreover, the T/C is reported as 36.0% in [2] (3 mg/kg, QD); 15.7% in [2] (6 mg/kg, QD); 64.2% in [2] (20 mg/kg, BIW).
In the case of `CC(C)C[C@@H]1NCCN([C@@H](CC(C)C)C(=O)N2CCC3(C[C@@H]2C)OCC(CN2CCC2)CO3)C1=O` (stereo partly drawn) [Compound 284, (3S)-1-[(2S)-4-methyl-1-oxo-1-[(3s,6s,8S)-3-(azetidin-1-ylmethyl)-8-methyl-1,5-dioxa-9-azaspiro[5.5]undec-an-9-yl]pentan-2-yl]-3-(2-methylpropyl)piper-azin-2-one (^≠), isomer Z], the “TWO-WAY ANOVA p (tumor size at the end of the study) vs. Compound 258 6 mg/kg” value in experiment [1] (setting [3]) is “n.s”. The “TWO-WAY ANOVA p (tumor size at the end of the study) vs. Compound 258 10 mg/kg” value in [1] (setting [3]) is reported as “n.s”. Also, in experiment [1] (6 mg/kg, p.o. QD), the “TWO-WAY ANOVA p (tumor size at the end of the study) vs. Enzalutamide” value is “p < 0.0001”. Also, in experiment [1] (6 mg/kg, p.o. QD), the “TWO-WAY ANOVA p (tumor size at the end of the study) vs. Vehicle” value is given as “p < 0.0001”. Moreover, the “CR (complete regression) = number of mice” value in experiment [1] (p.o. QD, 6 mg/kg) amounted to 3. Also, in experiment [1] (p.o. QD, 6 mg/kg), the “PR (partial regression) = number of mice” value is 2. Besides, in experiment [1] (p.o. QD, 6 mg/kg), the “TFS (Tumor Free Survival) = number of complete regressions recorded up to Group Day End” value was 3. In addition, the GI50 in the experiment on RPWE-1 turned out to be 10 nM; with MRC-5 it was 25 nM; in the experiment on SW48, 14 nM; with HS 746.T, 14 nM; in the experiment with HCT116 it was 9 nM; in the experiment on SNU-16 it was 22 nM. Also, the 50% growth inhibitory concentration (GI50) with SNU-5 is 6 nM; with HS-5 it was 10 nM; in the experiment with SW948, 12 nM; in the experiment on HDFA (fibroblast) it was over 10000 nM; in the experiment on SW620, 7 nM; in the experiment with HT-29 it was 7 nM. The “Tumor Size day 29” value in experiment [2] (3 mg/kg, QD) came out at 709.0 ± 55.6 mm^3; in experiment [2] (6 mg/kg, QD), 592.6 ± 109.7 mm^3. In addition, the T/C in experiment [2] (3 mg/kg, QD) stood at 59.6%; in experiment [2] (6 mg/kg, QD), 49.8%.
For the molecule `CC(C)C[C@@H]1NCCN([C@@H](CC(C)C)C(=O)N2CCC3(C[C@@H]2C)OCC(CN2CCC4(CC2)CC4)CO3)C1=O` (stereo partly drawn) [Compound 279, (3S)-1-[(2S)-4-methyl-1-oxo-1-[(3s,6s,8S)-3-{6-azaspiro[2.5]octan-6-ylmethyl}-8-methyl-1,5-dioxa-9-azaspiro[5.5]undec-an-9-yl]pentan-2-yl]-3-(2-methylpropyl)piper-azin-2-one (^≠), isomer Z], the GI50 with RPWE-1 amounted to 3 nM; with MRC-5, 10 nM; in the experiment with SW48, 6 nM; in the experiment on HS 746.T, 5 nM; with HCT116, 3 nM; in the experiment on SNU-16, 10 nM. The GI50 is 3 nM with SNU-5; 3 nM with HS-5; 3 nM in the experiment with SW948; over 10000 nM in the experiment on HDFA (fibroblast); 2 nM in the experiment with SW620; 4 nM with HT-29.
